From patent publication US10202376B2, “Heterocyclic compound” (Takeda Pharmaceutical Company Limited, priority 2014, dated 2019)

Target: T1, Human GRIN1 and human GRIN2B expressing HEK293 cells (Homo sapiens, UniProt Q13224)
T1 construct: host or cells: HEK293
Experiment: NR2B Ca2+ flux assay
Type: cell-based
Conditions: 10 μM test compound, glutamic acid/glycine stimulated Fluo-4 fluorescence, FLIPR, read-out: inhibitory rate (@10 μM)
Description: Experimental Example 1 NR2B Ca^2+ Flux Assay
Human GRIN1 and human GRIN2B expressing HEK293 cells were purchased from ChanTest. The cells were cultured in a DMEM/F-12 (COSMO BIO, 10-092-CM) medium added with 10% FBS (fetal bovine serum, AusGene), 100 units/mL penicillin, 100 μg/mL streptomycin, 500 μg/mL neomycin, 100 μg/mL Zeocin, 5 μg/mL Blasticidin at 37° C., 5% CO2. The cells were detached from flask with trypsin the day before the assay, suspended in a seeding medium (DMEM (Invitrogen, 31053) added with 10% FBS, 100 units/mL penicillin, 100 μg/mL streptomycin) at 8×10^5 cells/mL, seeded by 25 μL per well in a 384-well plate (Falcon, 356663) at 20000 cells/well, and cultured overnight in an incubator. On the day of the assay, tetracycline (Wako Pure Chemical Industries, Ltd., 209-16561) was diluted with the seeding medium at 2 μg/mL, added at […] to the plate seeded with the cells, and cultured for 2 hr in an incubator. Thereafter, the medium was removed, and the cells were washed with 50 μL/well assay buffer (137 mM NaCl, 4 mM KCl, 1.8 mM CaCl2, 10 mM HEPES (pH 7.2), 10 mM Glucose, 0.1% BSA). Then, a loading buffer (assay buffer added with 2.5 uM Fluo-4AM, 2 mM Amaranth, 1 mM Tartrazine) was added at 25 μL/well, and loading was performed in the incubator for 30 min, and at room temperature for 15 min. A test compound (25 μL) was added, and the cells were stood for 15 min at room temperature. Using FLIPR (Molecular Devices), 25 μL of an assay buffer containing […], 30 μM glycine was added, and the fluorescence signal was measured every 3 seconds for 5 min. The inhibitory activity was calculated as a relative activity value that inhibits 100% of the cumulative value of the fluorescence value of a well added with a buffer free of glutamic acid, glycine, relative to the cumulative value of the fluorescence value of each well.

T1 sequence (Q13224 27-1484, other chains not shown): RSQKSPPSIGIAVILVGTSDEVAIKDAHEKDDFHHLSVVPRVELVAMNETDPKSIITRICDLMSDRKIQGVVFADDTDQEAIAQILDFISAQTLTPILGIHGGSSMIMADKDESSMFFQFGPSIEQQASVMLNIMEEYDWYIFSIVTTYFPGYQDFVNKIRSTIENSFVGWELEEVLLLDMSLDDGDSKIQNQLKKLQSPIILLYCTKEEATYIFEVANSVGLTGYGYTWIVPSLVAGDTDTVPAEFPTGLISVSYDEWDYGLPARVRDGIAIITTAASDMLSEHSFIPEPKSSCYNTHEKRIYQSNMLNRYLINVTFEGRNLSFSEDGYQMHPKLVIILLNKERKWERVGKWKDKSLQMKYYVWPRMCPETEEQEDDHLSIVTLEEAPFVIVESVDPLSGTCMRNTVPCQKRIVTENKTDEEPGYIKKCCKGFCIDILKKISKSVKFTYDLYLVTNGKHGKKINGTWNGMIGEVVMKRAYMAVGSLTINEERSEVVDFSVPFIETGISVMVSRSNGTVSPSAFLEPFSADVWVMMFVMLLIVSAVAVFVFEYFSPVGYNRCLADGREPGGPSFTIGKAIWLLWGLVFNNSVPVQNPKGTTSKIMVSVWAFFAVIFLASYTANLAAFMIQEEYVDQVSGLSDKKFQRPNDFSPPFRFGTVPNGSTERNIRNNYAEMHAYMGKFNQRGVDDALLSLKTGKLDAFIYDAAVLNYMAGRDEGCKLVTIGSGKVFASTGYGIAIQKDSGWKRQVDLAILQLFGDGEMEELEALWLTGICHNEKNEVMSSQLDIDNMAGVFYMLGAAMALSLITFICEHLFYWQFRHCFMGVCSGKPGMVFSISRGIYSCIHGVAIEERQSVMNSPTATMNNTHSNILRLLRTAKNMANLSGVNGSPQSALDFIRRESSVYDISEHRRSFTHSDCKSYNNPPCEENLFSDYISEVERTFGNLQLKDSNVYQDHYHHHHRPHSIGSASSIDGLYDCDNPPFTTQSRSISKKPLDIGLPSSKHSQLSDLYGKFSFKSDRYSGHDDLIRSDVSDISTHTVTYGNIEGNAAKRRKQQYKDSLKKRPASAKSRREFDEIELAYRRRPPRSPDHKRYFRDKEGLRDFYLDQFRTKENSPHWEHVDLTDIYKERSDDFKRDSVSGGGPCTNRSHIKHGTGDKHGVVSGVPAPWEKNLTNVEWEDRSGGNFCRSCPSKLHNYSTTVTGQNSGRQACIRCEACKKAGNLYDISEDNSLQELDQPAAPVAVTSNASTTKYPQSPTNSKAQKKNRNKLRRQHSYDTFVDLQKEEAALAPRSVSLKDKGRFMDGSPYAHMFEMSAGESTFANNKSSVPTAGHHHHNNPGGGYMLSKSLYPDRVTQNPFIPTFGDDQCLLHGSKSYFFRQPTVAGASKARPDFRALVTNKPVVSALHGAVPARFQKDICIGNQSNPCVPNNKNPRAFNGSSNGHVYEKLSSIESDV

inhibition at 10 µM [%]	Compound
91	O=C(Cc1cccc2nccn12)Nc1ccc(Br)cc1 [Example 88, N-(4-bromophenyl)-2-(imidazo[1,2-a]pyridin-5-yl)acetamide]
80	O=C(Cc1cccc2nccn12)Nc1ccc(C(F)(F)F)cn1 [Example 36, 2-(imidazo[1,2-a]pyridin-5-yl)-N-(5-(trifluoromethyl)pyridin-2-yl)acetamide]
89	CC(C(=O)Nc1ccc(C(F)(F)F)cc1)c1cccc2nccn12 (centres unmarked) [Example 93, 2-(imidazo[1,2-a]pyridin-5-yl)-N-(4-(trifluoromethyl)phenyl)-propanamide]
90	O=C(Cc1cccc2nccn12)Nc1ccc(C(F)(F)F)c(Cl)c1 [Example 39, N-(3-chloro-4-(trifluoromethyl)phenyl)-2-(imidazo[1,2-a]pyridin-5-yl)acetamide]
95	Cc1ccc2nccn2c1CC(=O)Nc1ccc(OC(F)(F)F)cc1 [Example 79, 2-(6-methylimidazo[1,2-a]pyridin-5-yl)-N-(4-(trifluoromethoxy)phenyl)acetamide]
84	CC(C)(C)c1ccc(NC(=O)Cc2cccc3nccn23)cc1 [Example 64, N-(4-tert-butylphenyl)-2-(imidazo[1,2-a]pyridin-5-yl)acetamide]
91	O=C(Cc1c(Cl)ccc2nccn12)Nc1ccc(OC(F)(F)F)cc1 [Example 91, 2-(6-chloroimidazo[1,2-a]pyridin-5-yl)-N-(4-(trifluoromethoxy)-phenyl)acetamide]
71	O=C(Cc1cccc2nccn12)Nc1ccc(C(F)(F)F)nc1 [Example 44, 2-(imidazo[1,2-a]pyridin-5-yl)-N-(6-(trifluoromethyl)pyridin-3-yl)acetamide]
82	O=C(Cc1cccc2nccn12)Nc1ccc(S(F)(F)(F)(F)F)cc1 [Example 62, 2-(imidazo[1,2-a]pyridin-5-yl)-N-(4-(pentafluoro-λ^6-sulfanyl)phenyl)-acetamide]
91	Cc1cn2c(CC(=O)Nc3ccc(OC(F)(F)F)cc3)cccc2n1 [Example 85, 2-(2-methylimidazo[1,2-a]pyridin-5-yl)-N-(4-(trifluoromethoxy)-phenyl)acetamide]
73	O=C(Cc1c(F)ccc2nccn12)Nc1ccc(C(F)(F)F)cc1 [Example 73, 2-(6-fluoroimidazo[1,2-a]pyridin-5-yl)-N-(4-(trifluoromethyl)phenyl)-acetamide]
56	CN(C(=O)Cc1cccc2nccn12)c1ccc(C(F)(F)F)cc1 [Example 51, 2-(imidazo[1,2-a]pyridin-5-yl)-N-methyl-N-(4-(trifluoromethyl)phenyl)-acetamide]
76	CCc1ccc(NC(=O)Cc2cccc3nccn23)nc1 [Example 95, N-(5-ethylpyridin-2-yl)-2-(imidazo[1,2-a]pyridin-5-yl)acetamide]
97	CCc1ccc2nccn2c1CC(=O)Nc1ccc(OC(F)(F)F)cc1 [Example 78, 2-(6-ethylimidazo[1,2-a]pyridin-5-yl)-N-(4-(trifluoromethoxy)phenyl)acetamide]
83	O=C(Cc1cccc2nccn12)Nc1cc2ccccc2s1 [Example 65, N-(1-benzothiophen-2-yl)-2-(imidazo[1,2-a]pyridin-5-yl)acetamide]
94	CC(C(=O)Nc1ccc(OC(F)(F)F)cc1)c1cccc2nccn12 (centres unmarked) [Example 84, 2-(imidazo[1,2-a]pyridin-5-yl)-N-(4-(trifluoromethoxy)-phenyl)propanamide]
78	O=C(Cc1cccc2nccn12)Nc1ccc2c(c1)CCO2 [Example 67, N-(2,3-dihydro-1-benzofuran-5-yl)-2-(imidazo[1,2-a]pyridin-5-yl)acetamide]
87	O=C(Cc1cccc2nccn12)Nc1ccc(OC(F)(F)F)cn1 [Example 92, 2-(imidazo[1,2-a]pyridin-5-yl)-N-(5-(trifluoromethoxy)-pyridin-2-yl)acetamide]
51	Cc1cc(CC(=O)Nc2ccc(C(F)(F)F)cc2)n2ccnc2c1 [Example 71, 2-(7-methylimidazo(1,2-a]pyridin-5-yl)-N-(4-(trifluoromethyl)phenyl)-acetamide]
95	CCc1ccc2nccn2c1CC(=O)Nc1ccc(C(F)(F)F)cc1 [Example 81, 2-(6-ethylimidazo[1,2-a]pyridin-5-yl)-N-(4-(trifluoromethyl)phenyl)-acetamide]
68	O=C(Cc1cccc2nccn12)Nc1ccc(OC2CCC2)cc1 [Example 75, N-(4-(cyclobutyloxy)phenyl)-2-(imidazo[1,2-a]pyridin-5-yl)acetamide]
85	O=C(Cc1ccc(F)c2nccn12)Nc1ccc(OC(F)(F)F)cc1 [Example 94, 2-(8-fluoroimidazo[1,2-a]pyridin-5-yl)-N-(4-(trifluoromethoxy)-phenyl)acetamide]
94	COc1ccc2nccn2c1CC(=O)Nc1ccc(OC(F)(F)F)cc1 [Example 80, 2-(6-methoxyimidazo[1,2-a]pyridin-5-yl)-N-(4-(trifluoromethoxy)phenyl)acetamide]

More lines, now with the values behind:

Compound	inhibition at 10 µM [%]
Cc1ccc(NC(=O)Cc2cccc3nccn23)cc1 [Example 35, 2-(imidazo[1,2-a]pyridin-5-yl)-N-(4-methylphenyl)acetamide]	90
CCOc1ccc(NC(=O)Cc2cccc3nccn23)cc1F [Example 18, N-(4-ethoxy-3-fluorophenyl)-2-(imidazo[1,2-a]pyridin-5-yl)acetamide]	91
Cc1ccc(NC(=O)Cc2cccc3nccn23)cc1F [Example 15, N-(3-fluoro-4-methylphenyl)-2-(imidazo[1,2-a]pyridin-5-yl)acetamide]	91
O=C(Cc1cccc2nccn12)Nc1ccc(OC(F)F)c(F)c1 [Example 17, N-(4-(difluoromethoxy)-3-fluorophenyl)-2-(imidazo[1,2-a]pyridin-5-yl)acetamide]	93
O=C(Cc1cccc2nccn12)Nc1ccc(Cl)cc1 [Example 33, N-(4-chlorophenyl)-2-(imidazo[1,2-a]pyridin-5-yl)acetamide]	92
CCc1ccc(NC(=O)Cc2cccc3nccn23)cc1 [Example 3, N-(4-ethylphenyl)-2-(imidazo[1,2-a]pyridin-5-yl)acetamide]	94
O=C(Cc1cccc2nccn12)Nc1ccc(C(F)(F)F)cc1 [Example 1, 2-(imidazo[1,2-a]pyridin-5-yl)-N-(4-(trifluoromethyl)phenyl)acetamide]	91
O=C(Cc1cccc2nccn12)Nc1ccc(OC(F)F)cc1 [Example 6, N-(4-(difluoromethoxy)phenyl)-2-(imidazo[1,2-a]pyridin-5-yl)acetamide]	93
O=C(Cc1cccc2nccn12)Nc1ccc(F)cc1 [Example 32, N-(4-fluorophenyl)-2-(imidazo[1,2-a]pyridin-5-yl)acetamide]	83
O=C(Cc1cccc2nccn12)Nc1ccc(Cl)c(F)c1 [Example 7, N-(4-chloro-3-fluorophenyl)-2-(imidazo[1,2-a]pyridin-5-yl)acetamide]	90
COc1ccc(NC(=O)Cc2cccc3nccn23)cc1F [Example 8, N-(3-fluoro-4-methoxyphenyl)-2-(imidazo[1,2-a]pyridin-5-yl)acetamide]	92
N#Cc1ccc(NC(=O)Cc2cccc3nccn23)cc1 [Example 31, N-(4-cyanophenyl)-2-(imidazo[1,2-a]pyridin-5-yl)acetamide]	78
O=C(Cc1cccc2nccn12)Nc1cc(F)c(F)c(F)c1 [Example 9, 2-(imidazo[1,2-a]pyridin-5-yl)-N-(3,4,5-trifluorophenyl)acetamide]	87
O=C(Cc1cccc2nccn12)Nc1ccc(C2CC2)cc1 [Example 4, N-(4-cyclopropylphenyl)-2-(imidazo[1,2-a]pyridin-5-yl)acetamide]	94
O=C(Cc1cccc2nccn12)Nc1ccc(C2CC2)c(F)c1 [Example 12, N-(4-cyclopropyl-3-fluorophenyl)-2-(imidazo[1,2-a]pyridin-5-yl)acetamide]	93
CCCc1ccc(NC(=O)Cc2cccc3nccn23)cc1 [Example 10, 2-(imidazo[1,2-a]pyridin-5-yl)-N-(4-propylphenyl)acetamide]	91
COc1ccc(NC(=O)Cc2cccc3nccn23)cc1 [Example 2, 2-(imidazo[1,2-a]pyridin-5-yl)-N-(4-methoxyphenyl)acetamide]	91
O=C(Cc1cccc2nccn12)Nc1ccc(OC(F)(F)F)c(F)c1 [Example 14, N-(3-fluoro-4-(trifluoromethoxy)phenyl)-2-(imidazo[1,2-a]pyridin-5-yl) acetamide]	92
